Reference: patent US9597359B2, “Production of dentin, cementum and enamel by cells” (The Trustees of Columbia University in the City of New York, priority 2010, dated 2017)

How the values were obtained:
Human PDL cells [1] = assay: von Kossa staining of human PDL cells treated with amelogenin, BIO or Wnt3A; assay type: cell-based; details: 2 weeks; amelogenin 5 μg/ml, BIO 1 μg/ml, Wnt3A 50 ng/ml
Method: The human PDL cells were treated with amelogenin, BIO, or Wnt3A as indicated for 2 weeks.

PDL cells [2] = assay: Alkaline phosphatase and von Kossa staining of PDL cells in osteogenic media; assay type: cell-based, human; details: chemically-defined osteogenic media
Method: (§1) Human PDL cells were seeded in the 6 well plate and cultured in presence of 50 μg/ml ascorbic acid. The cells were treated with amelogenin. […] The total RNA was extracted and the expression of type I collagen was determined by Real Time PCR (see e.g., FIG. 17B). […] PDL cells were treated with amelogenin in the chemically-defined osteogenic media (see FIG. 17C).

beta catenin signaling = assay: fibrin gel implanted subcutaneously into TOPGAL mice, LacZ staining; assay type: in vivo; details: fibrin gel containing 50 μg/ml, subcutaneous, 1 week post-implantation
Method: (§2) PDL cells were treated with amelogenin for 16 hours. The active beta catenin level were determined by western blotting (see e.g., FIG. 18A). […] Wnt signaling reporter TOPFLASH was transfected into PDL cells and then the cells were treated with amelogenin. The luciferase activity was measured 48 hours after treatment (see e.g., FIG. 18C). The primary osteoblasts were isolated from Wnt signaling reporter mice, TOPGAL. 48 hours after treatment, the LacZ activity was measured (see e.g., FIG. 18D). Fibrin gel containing 50 μg/ml was implanted subcutaneously into the TOPGAL mice. 1 week post-implantation, the gel was harvested. LacZ staining was performed. […] Recombinant amelogenin is 6×His tagged. The distribution of amelogenin is shown overlapped with the beta catenin signaling as indicated by the LacZ staining (see e.g., FIG. 18F).

[3] = test system: Wnt signaling reporter (TOPGAL osteoblasts); assay: LacZ activity in primary osteoblasts from TOPGAL mice; assay type: cell-based; details: 48 hours after treatment
Method: as §2

active beta catenin = active beta catenin western blotting, PDL cells; assay type: cell-based, human; details: PDL cells treated for 16 hours
Method: as §2

DSCs = assay: cell proliferation by cell number count; assay type: cell-based; details: 3000 cells seeded, counted every 2 days
Method: 3000 cells were seeded in the 12 well plate and the cell number was counted every 2 days (see e.g., FIG. 28A-B).

[4] = test system: Wnt signaling reporter TOPFLASH; assay: Wnt signaling reporter TOPFLASH luciferase activity in PDL cells; assay type: cell-based, human; details: 48 hours after treatment
Method: as §2

PDL cells [5] = assay: cell count of PDL cells; assay type: cell-based, human; details: counted at 0, 2 and 4 days
Method: PDL cells and dental pulp cells (DPSC) were seeded in 12 well plate with the cells number indicated. The cell treated with amelogenin and cell number were counted at 0, 2, and 4 days (see e.g., FIG. 9A-B).

dental pulp cells = assay: DSP immunostaining of dental pulp cells; assay type: cell-based, human; details: amelogenin group
Description: Immunostaining verified DSP-positive cells in the amelogenin group (see e.g., FIG. 27A-B″).

[6] = test system: Dental pulp stem cells (DPSCs); assay: marker gene expression by RT-PCR in dental pulp stem cells in osteogenic medium; assay type: cell-based, human; details: 3 weeks
Method: Dental pulp stem cells (DPSCs) were cultured in osteogenic medium for 3 weeks (see e.g., FIG. 13A-B). The osteogenic differentiation was determined by ALP and Van Kossa staining (see e.g., FIG. 13B). The expression of marker genes, RunX2 and DSPP, were determined by RT-PCR (see e.g., FIG. 13C).

[7] = test system: non-phosphorylated beta-catenin; assay: non-phosphorylated beta-catenin western blotting, dental pulp cells; assay type: cell-based, human; details: anti-active beta catenin antibody
Method: (§3) The dental pulp cells were treated with recombinant amelogenin overnight. The translocation of beta catenin was determined by immunofluorescence staining (see e.g., FIG. 8A-F). Briefly, the cells were fixed with formalin for 5 min and treated with PBS with 0.1% triton for 5 min. The cells were then incubated with anti-beta catenin antibody overnight, after washing with PBS with 0.5% Tween-20, then incubated with secondary antibody labeled with fluorescence dye. […] The PDL cells treated with amelogenin were lysed with PBS lysis buffer containing 1% NP-40 and protease inhibitor, phosphatase inhibitor cocktails. The non-phosphorylated beta-catenin levels were determined by western blotting using anti-active beta catenin antibody (anti-ABC, millipore) (see e.g., FIG. 8G).

Human PDL cells [8] = assay: Von Kossa staining of human PDL cells transfected with ICAT plasmid; assay type: cell-based; details: osteogenic media, 2 weeks
Method: Human PDL cells were transfected with the Wnt signaling inhibitor, ICAT plasmid. The cells were treated with amelogenin in the osteogenic media for 2 weeks.

[9] = test system: dental pulp stem cells or periodontal ligament stem cells; assay: osteogenic and odontogenic differentiation of dental pulp and periodontal ligament stem cells; assay type: cell-based, human; details: culture with amelogenin (e.g., recombinant)
Method: Exfoliating deciduous incisors and permanent third molars of multiple donors were collected. Dental pulp (DP) and periodontal ligament (PDL) stem cells were isolated and enzyme-digested per known methods (Yang et al., 2010, Clones of ectopic stem cells in the regeneration of muscle defects in vivo. PloS One. 2010 Oct. 20; 5 (10)). Mononucleated and adherent cells were cultured in DMEM-LG medium containing 10% FBS and 1% antibiotics in 10 cm cell culture dishes. These isolated cells contain single clones of multipotent stem cells that readily express sternness markers such as Stro-1, Oct4, Nanog, and CD146. DSCs and PDL cells were expanded and subjected to osteogenic and odontogenic differentiation. Briefly, DP and PDL stem cells were cultured in DMEM-LG medium containing 10% FBS, 50 μg/ml ascorbic acid and 1 mM 2-glycerophosphate in the presence or absence of recombinant amelogenin. The osteoaenic and odontoaenic differentiation was determined by the expression of RUNX2, dentin sialophosphoprotein (DSPP) and Dentin Matrix Protein 1 (DMP-1) by Real Time PCR, as well as Von Kossa and alkaline phosphatase staining. The level of active […] was measured by immune-fluorescence staining and western blotting.

[10] = test system: Mesenchymal stem cell C3H10t1/2 cells; assay: ALP and Van Kossa staining of C3H10t1/2 cells in osteogenic medium; assay type: cell-based; details: C3H10t1/2, osteogenic medium
Method: Mesenchymal stem cell C3H10t1/2 cells were cultured in osteogenic medium for 2 weeks (see e.g., FIG. 14A).
(§4) At 3 weeks, amelogenin-treated cells were positive for both ALP and Van Kossa (see e.g., FIG. 15A-B). […] However, the cells tested negative for DSPP.

[11] = test system: Mesenchymal stem cell C3H10t1/2 cells; assay: RT-PCR marker expression in C3H10t1/2 cells in osteogenic medium; assay type: cell-based; details: C3H10t1/2, osteogenic medium
Description: as §4

Human PDL cells [12] = assay: trichrome staining of collagen matrix in human PDL cells; assay type: cell-based; details: 50 μg/ml ascorbic acid, 2 weeks post-treatment
Method: as §1

beta catenin [13] = assay: beta catenin translocation by immunofluorescence staining in dental pulp cells; assay type: cell-based, human; details: dental pulp cells treated with recombinant amelogenin overnight
Method: as §3

PDL cells [14] = assay: differentiation markers by Real Time PCR in PDL cells in osteogenic media; assay type: cell-based, human; details: chemically-defined osteogenic media
Method: as §1

beta catenin [15] = assay: beta catenin translocation by immunofluorescence staining in PDL cells; assay type: cell-based, human
Method: The PDL cells were treated with recombinant amelogenin overnight. The translocation of beta catenin was determined by immunofluorescence staining (see e.g., FIG. 7A-F). Briefly, the cells were fixed with formalin for 5 min and treated with PBS with 0.1% triton for 5 min. The cells were then incubated with anti-beta catenin antibody overnight, after washing with PBS with 0.5% Tween-20, then incubated with secondary antibody labeled with fluorescence dye. […] Meanwhile, the PDL cells treated with amelogenin were lysed with PBS lysis buffer containing 1% NP-40 and protease inhibitor, phosphotase inhibitor cocktails. The non-phosphorylated beta catenin levels were determined by western blotting using anti-active beta catenin antibody (anti-ABC, millipore) (see e.g., FIG. 7G).
PDL cells were treated with amelogenin for 16 hours. The active beta catenin level were determined by western blotting (see e.g., FIG. 18A). […] Wnt signaling reporter TOPFLASH was transfected into PDL cells and then the cells were treated with amelogenin. The luciferase activity was measured 48 hours after treatment (see e.g., FIG. 18C). The primary osteoblasts were isolated from Wnt signaling reporter mice, TOPGAL. 48 hours after treatment, the LacZ activity was measured (see e.g., FIG. 18D). Fibrin gel containing 50 μg/ml was implanted subcutaneously into the TOPGAL mice. 1 week post-implantation, the gel was harvested. […]

Human PDL cells [16] = assay: type I collagen expression by Real Time PCR in human PDL cells; assay type: cell-based; details: 2 weeks post-treatment
Method: as §1

Molecule: O=C1Nc2cc(Br)ccc2/C1=C1/Nc2ccccc2/C1=N\O [BIO, reference compound]
- cell differentiation (von Kossa staining) (Human PDL cells [1]): cell differentiation

Molecule: amelogenin
- cell differentiation (Alkaline phosphatase and von Kossa staining) (PDL cells [2]): cell differentiation was confirmed
- LacZ staining around implanted gel (beta catenin signaling): LacZ positive cells were found in the surrounding area of the gel
- LacZ activity [3]: increased
- active beta catenin level (active beta catenin): exhibited active beta-catenin levels
- cell proliferation (cell number) (DSCs): more rapid proliferation
- Wnt activity (TOPFLASH luciferase activity) [4]: increased
- cell counts (PDL cells [5]): temporal increase in cell counts
- DSP immunostaining (dental pulp cells): DSP-positive
- DSPP expression [6]: DSPP-positive
- non-phosphorylated beta-catenin levels [7]: increased
- cell differentiation (von Kossa staining) (Human PDL cells [1]): cell differentiation
- cell differentiation (Von Kossa staining) (Human PDL cells [8]): demonstrated cell differentiation
- ALP and Van Kossa staining [9]: increased
- DSPP expression [9]: increased
- ALP staining ([10]; 2 weeks): positive
- Van Kossa staining ([10]; 2 weeks): negative
- ALP staining ([10]; 3 weeks): positive
- Van Kossa staining ([10]; 3 weeks): positive
- DSPP ([11]; 3 weeks): negative
- RunX2 expression ([11]; RT-PCR): induced
- collagen matrix synthesis (trichrome staining) (Human PDL cells [12]): promote the PDL cells matrix synthesis
- translocation of beta catenin (beta catenin [13]): beta catenin translocalized into nucleus
- differentiation markers (Real Time PCR) (PDL cells [14]): upregulation
- nuclear translocalization of beta catenin (beta catenin [15]; PDL cells treated for 16 hours): nuclear translocalization
- translocation of beta catenin (beta catenin [15]; PDL cells treated with recombinant amelogenin overnight): beta catenin translocalized into nucleus
- type I collagen mRNA (Human PDL cells [16]): upregulate

B1: Wnt3A: Wnt3A used at 50 ng/ml on human PDL cells as comparator (protein, UniProt P56704 19-352, looked up)
Protein Wnt-3a: SYPIWWSLAVGPQYSSLGSQPILCASIPGLVPKQLRFCRNYVEIMPSVAEGIKIGIQECQHQFRGRRWNCTTVHDSLAIFGPVLDKATRESAFVHAIASAGVAFAVTRSCAEGTAAICGCSSRHQGSPGKGWKWGGCSEDIEFGGMVSREFADARENRPDARSAMNRHNNEAGRQAIASHMHLKCKCHGLSGSCEVKTCWWSQPDFRAIGDFLKDKYDSASEMVVEKHRESRGWVETLRPRYTYFKVPTERDLVYYEASPNFCEPNPETGSFGTRDRTCNVSSHGIDGCDLLCCGRGHNARAERRREKCRCVFHWCCYVSCQECTRVYDVHTCK
- cell differentiation (von Kossa staining) (Human PDL cells [1]): cell differentiation
